Read-outs that look alike come from different tables or passages of the source.
Legend:
[1] = system: A/WSN/33; test: In vitro inhibition assay in BEAS2B cells, virus copies by qRT-PCR; assay type: cell-based, Influenza A virus
[2] = system: A/WSN/33; assay type: cell-based, Influenza A virus
[3] = system: A/WSN/33; test: Mouse infection, lung M gene copy number by qPCR; assay type: in vivo, BALB/c female mice; conditions: prophylactic, NSC 95397 […], KN-93 10 mg/kg by gavage, lungs 48 h after infection
[4] = system: A/CA/04/09; test: Mouse infection, lung infectious virus titer (TCID50 on MDCK cells); assay type: in vivo, BALB/c female mice; conditions: NSC 95397 […], KN-93 10 mg/kg; for lung infectious virus (TCID50) vs control: prophylactic
[5] = system: CAMKIIB gene expression; assay type: in vivo, mice; conditions: 10 mg/kg; 24 h and 48 h post-treatment
[6] = system: BEAS2B cells
[7] = mouse, in vivo
[8] = system: A/WSN/33; conditions: previously shown (literature); cited from earlier work
[9] = system: SLC22A8 gene; assay type: cell-based, human; conditions: A549 cells; varying concentrations; 24 and 48 h
[10] = system: A/WSN/33; test: Inhibition assay in A549 cells (qRT-PCR copy number, NP staining); assay type: cell-based, Influenza A virus; conditions: A549 cells treated prophylactically or therapeutically, varying concentrations
[11] = system: A/New Calcdonia/20/90; test: as above; assay type: cell-based, Influenza A virus; conditions: A549 cells treated prophylactically or therapeutically, varying concentrations
[12] = system: SLC22A8 gene; design: species or system BALB/c mice; conditions: mouse, in vivo
[13] = system: A/New Calcdonia/20/90; test: Influenza replication in lungs of mice (qRT-PCR, TCID50); assay type: in vivo, BALB/c mice; conditions: mice treated with 10 or 200 mg/kg
Method: (§1) Animals. BALB/c female mice (6-8 week-old) were obtained from NCI. All experiments and procedures were Institutional Animal Care and Use Committee (IACUC) approved by the IACUC of UGA. The animals were kept alone in cages. They were allowed free access to water and food both before and during the experiments. All experiments were performed with 5 mice per group and repeated independently at least twice.
(§2) Drug treatment and infection. Probenecid was dissolved in PBS and injected intraperitoneally at final doses of 10 and 200 mg/kg body weight (about 0.2 ml per animal). Similar studies were done using the same doses but delivering by gavage. […] The treatments were 24 h or 48 h before infection. Prior to infection, mice were anesthetized with Avertin and infected by intranasal instillation with 50 μl of PBS containing 100 PFU of A/WSN/33 or A/New Calcdonia/20/90 influenza virus. The lungs of the mice were collected at 48 hip for qRT-PCR and TCID50. In some studies, Probenecid was administered at 48 h prior to influenza virus infection by tail vein injection (200 ul) where the following groups were evaluated (5 mice/group): Group 1—Probenecid 5.0 mg/kg; Group 2—Probenecid 0.5 mg/kg; Group 3—Probenecid 0.05 mg/kg; Group 4—Positive Control—KN93 (10 mg/kg); Group 5—Negative Control (PBS); Group 6—Probenecid 5.0 mg/kg no infection (gene silencing only).
(§3) Detection of virus replication. qRT-PCR and TCID50 of the lungs. The lungs of infected animals were longitudinally sectioned. One half of the lung was into TRizol (Invitrogen, Carlsbad, Calif., USA) for isolating total RNA. Another half lung was into MEM/without serum media for TCIT50. The qRT-PCR performance for both of virus replication and the gene expression was like in vitro.

[14] = system: A/WSN/33; test: as above; assay type: in vivo, BALB/c mice
Method: as §1, §2, §3

[15] = system: A549 cells
[16] = in vivo; cited from earlier work

With `COc1ccc(S(=O)(=O)N(CCO)c2ccccc2CN(C)C/C=C/c2ccc(Cl)cc2)cc1` [KN-93] the inhibition at 250 µM ([1]; Influenza A virus, WSN, BEAS-2B, read-out: inhibition of virus replication) was greater than 80%, the “dose dependence of inhibition of virus replication” value ([1]; pretreatment 1 h, […]) was “inhibited influenza replication in a dose-dependent manner” and the “number of NP-staining cells compared to control” value [2] was “not perceptibly affected”. The “lung influenza M gene copy number vs control” value ([3]; 24 h before infection) was “significantly (p<0.05) shielded”, the “lung influenza M gene copy number vs control” value ([3]; 48 h before infection) was “not statistically significant” and the “lung infectious virus (TCID50) vs control” value ([4]; 24 h before infection) was “significantly (p<0.05) different than control”. For the same compound, the “lung infectious virus (TCID50) vs control” value ([4]; 48 h before infection) was “not statistically significant”, the “reduction of lung virus titers vs control” value ([4]; treatment at 24 h or 48 hpi) was “no significant (p<0.05) effect” and the “CAMKIIB gene expression in lungs” value [5] was “down-modulation”. The cell cytotoxicity [6] was “insignificant”, the cell cytotoxicity ([6]; 250 uM) was “negligible” and the “cell cytotoxicity compared to the control” value ([6]; 500 uM (highest drug concentration)) was 20-30%. The “toxicity in mice treated with drugs only” value [7] was “no apparent toxicity” and the “influenza viral replication in MDCK cells” value [8] was “inhibits A/WSN/33 influenza viral replication in a dose-dependent manner”.
With `CCCN(CCC)S(=O)(=O)c1ccc(C(=O)O)cc1` [Probenecid, 4-(dipropylsulfamoyl)benzoic acid] the SLC22A8 gene expression [9] was “effectively reduce SLC22A8 gene expression”, the influenza virus replication [10] was “refractory to influenza virus replication” and the influenza virus replication [11] was “refractory to influenza virus replication”. For the same compound, the SLC22A8 gene expression [12] was “effectively reduce SLC22A8 gene expression”, the “influenza virus replication in lungs” value [13] was “refractory to influenza virus replication” and the “efficacy relative to Tamiflu” value ([14]; 10 mg/kg Probenecid, -24 or +24 h) was “as effective as Tamiflu treatment”. The “influenza virus replication in lungs” value ([14]; mice treated prophylactically or therapeutically, varying concentrations) was “refractory to influenza virus replication”, the toxicity [15] was “without causing toxicity” and the “increase of blood concentrations of Tamiflu (oseltamivir)” value [16] was “more than double”.
